This passage reports GI50 results from ChEMBL document CHEMBL3217516, “Library synthesis and cytotoxicity of a family of 2-phenylacrylonitriles and discovery of an estrogen dependent breast cancer lead compound” (Medchemcomm, 2011).

Common to all, as to assay type: functional
The nature of assay [1]: Cytotoxicity against human SJ-G2 cells after 72 hrs by MTT assay. The conditions noted are these: SJ-G2, 72 h. On the technique in general: Formazan colour is commonly taken as a measure of viable cells.
The test system of assay [2] is A2780. Put plainly: Cytotoxicity against human A2780 cells after 72 hrs by MTT assay. The following applies: A2780, 72 h.
Assay [3] relates to DU-145. As to the kind of experiment: Cytotoxicity against human DU145 cells after 72 hrs by MTT assay. The following applies: DU-145, 72 h.
The test system of assay [4] is HT-29. As to the kind of experiment: Cytotoxicity against human HT-29 cells after 72 hrs by MTT assay. The conditions noted are these: HT-29, 72 h.
Assay [5] has as its system SW480. As to the kind of experiment: Cytotoxicity against human SW480 cells after 72 hrs by MTT assay. The following applies: SW480, 72 h.
Assay [6] is described as follows: Cytotoxicity against human MIA cells after 72 hrs by MTT assay.
Assay [7] in a line: Cytotoxicity against human H460 cells after 72 hrs by MTT assay. The following applies: NCI-H460, 72 h.
Assay [8] can be described thus: Cytotoxicity against human BE(2)-C cells after 72 hrs by MTT assay.
The subject of assay [9] is A-431. As to the kind of experiment: Cytotoxicity against human A431 cells after 72 hrs by MTT assay. The conditions noted are these: A-431, 72 h.
In assay [10] the test system is MCF7. Put plainly: Cytotoxicity against human MCF7 cells after 72 hrs by MTT assay. The conditions noted are these: MCF7, 72 h.

On to `N#C/C(=C\c1ccc[nH]1)c1ccc(F)cc1`, for which the concentration for 50% growth inhibition (GI50) (as a rule, the concentration that inhibits growth by half) in assay [1] came out at 30 µM; in assay [2], 25 µM; in assay [3], 59 µM; in assay [4], 31 µM; in assay [5], 24 µM; in [6] it was 63 µM. The GI50 amounted to 52 µM in assay [7], 43 µM in assay [8], 37 µM in [9] and 15 µM in assay [10].

On to `N#C/C(=C/c1ccc(Cl)c(Cl)c1)C(=O)c1ccc[nH]1`, for which the GI50 in assay [1] is 10 µM; in [2], less than 10 µM; in [3] it was less than 10 µM; in [4] it was less than 10 µM; in assay [5], less than 10 µM; in assay [6] it was less than 10 µM. The 50% growth inhibitory concentration (GI50) in assay [7] is less than 10 µM; in assay [8], 14 µM; in [9] it was less than 10 µM; in [10], 14 µM.

On to `N#C/C(=C\c1ccc[nH]1)c1ccccc1`, for which the GI50 in assay [1] was 46 µM; in [2], 25 µM; in assay [3], greater than 100 µM; in assay [4], 41 µM; in assay [5], 26 µM; in assay [6] it was 81 µM. The 50% growth inhibitory concentration (GI50) in assay [7] was 81 µM; in assay [8] it was 61 µM; in [9] it was 57 µM; in [10] it was 17 µM.

Consider `CC(=O)Oc1ccc(/C=C(\C#N)c2ccc(Cl)c(Cl)c2)cc1`, for which the GI50 in [1] is 21 µM; in assay [2], 18 µM; in [3], 47 µM; in assay [4], 18 µM; in assay [5], 27 µM; in assay [6], 38 µM. For the same compound, the GI50 in assay [7] is 33 µM; in assay [8], 22 µM; in assay [9] it was 25 µM; in [10], 25 µM.

For `N#C/C(=C/c1ccc2ccccc2c1)C(=O)c1ccc[nH]1`, the GI50 in assay [1], in assay [2], in assay [3], in assay [4], in assay [5] and in assay [6] was less than 10 µM in each case. Moreover, the GI50 in assay [7] is less than 10 µM; in assay [8], less than 10 µM; in assay [9], less than 10 µM; in assay [10], 12 µM.

Take `N#CC(Cc1ccc[nH]1)c1ccc(Cl)cc1` (configuration not stated): the concentration for 50% growth inhibition (GI50) is 52 µM in assay [1]; 26 µM in assay [2]; 60 µM in assay [3]; 37 µM in assay [4]; 53 µM in assay [5]; 58 µM in assay [6]. For the same compound, the GI50 is 58 µM in assay [7], 45 µM in [8], 58 µM in assay [9] and 26 µM in assay [10].

With `N#C/C(=C\c1ccc(Cl)cc1)c1ccc(Cl)c(Cl)c1`, the concentration for 50% growth inhibition (GI50) in [1] was determined as 6.1 µM; in assay [2], 4 µM; in assay [3], 12 µM; in assay [4], 2.5 µM; in assay [5], 5 µM; in assay [6], 4 µM. Moreover, the 50% growth inhibitory concentration (GI50) in assay [7] came to 4.8 µM; in assay [8] it was 4.1 µM; in [9] it was 4.3 µM; in assay [10] it was 4.3 µM.

For `N#C/C(=C/c1ccc([N+](=O)[O-])cc1)C(=O)c1ccc[nH]1`, the GI50 was less than 10 µM in assay [1]; 19 µM in assay [2]; less than 10 µM in assay [3]; less than 10 µM in assay [4]; less than 10 µM in [5]; less than 10 µM in [6]. The concentration for 50% growth inhibition (GI50) in assay [7] was less than 10 µM; in assay [8] it was 19 µM; in assay [9] it was less than 10 µM; in [10], 19 µM.

In the case of `Cc1ccc(/C=C(/C#N)C(=O)c2ccc[nH]2)cc1`, the 50% growth inhibitory concentration (GI50) in assay [1] is 20 µM; in assay [2] it was 19 µM; in [3], less than 10 µM; in assay [4] it was 14 µM; in assay [5], 14 µM; in assay [6], 27 µM. Also, the GI50 in assay [7] was 11 µM; in [8], 11 µM; in assay [9], less than 10 µM; in assay [10], 39 µM.

With `N#C/C(=C\c1cc(O)cc(O)c1)c1ccc(Cl)c(Cl)c1`, the concentration for 50% growth inhibition (GI50) in assay [1] was 95 µM; in [2], 93 µM; in assay [3] it was greater than 100 µM; in [4] it was greater than 100 µM; in assay [5], 90 µM; in assay [6] it was greater than 100 µM. For the same compound, the concentration for 50% growth inhibition (GI50) in assay [7] is greater than 100 µM; in assay [8], greater than 100 µM; in [9], 88 µM; in assay [10] it was 28 µM.

Regarding `N#C/C(=C\c1ccncc1)c1ccc(Cl)c(Cl)c1`, the GI50 in assay [1] was 22 µM; in [2], 18 µM; in assay [3], 24 µM; in assay [4], 18 µM; in assay [5], 18 µM; in assay [6], 22 µM. Besides, the GI50 in [7] stood at 9.4 µM; in assay [8] it was 16 µM; in assay [9], 26 µM; in assay [10], 15 µM.

For the compound `N#C/C(=C\c1ccc2ccccc2c1)c1ccc(Cl)c(Cl)c1`, the GI50 in [1] was 2.3 µM; in [2], 1.8 µM; in assay [3], 2.7 µM; in assay [4], 1.6 µM; in assay [5], 2.3 µM; in assay [6], 2.1 µM. The GI50 was 1.7 µM in assay [7], 1.9 µM in [8], 1.8 µM in assay [9] and 1.5 µM in assay [10].

Take `N#C/C(=C\c1ccc[nH]1)c1ccc([N+](=O)[O-])cc1`: the concentration for 50% growth inhibition (GI50) in [1] turned out to be 24 µM; in assay [2], 18 µM; in [3] it was 26 µM; in assay [4], 25 µM; in assay [5], 24 µM; in [6], 34 µM. Also, the 50% growth inhibitory concentration (GI50) in assay [7] amounted to 32 µM; in assay [8], 22 µM; in assay [9], 27 µM; in [10], 18 µM.

As for `N#C/C(=C/c1ccc(O)cc1)C(=O)c1ccc[nH]1`, the GI50 in assay [1] was less than 10 µM; in assay [2] it was less than 10 µM; in [3] it was less than 10 µM; in assay [4] it was less than 10 µM; in [5], less than 10 µM; in [6] it was 11 µM. For the same compound, the GI50 in assay [7] is less than 10 µM; in assay [8] it was less than 10 µM; in assay [9] it was less than 10 µM; in [10] it was 15 µM.

For the compound `COc1ccc(/C=C(\C#N)c2ccc(Cl)c(Cl)c2)cc1`, in assay [6], the GI50 was found to be 0.7 µM.

Regarding `N#CC(Cc1ccc[nH]1)c1ccc([N+](=O)[O-])cc1` (configuration not stated), the GI50 worked out at 87 µM in assay [1]; 29 µM in [2]; 90 µM in assay [3]; 67 µM in assay [4]; 70 µM in assay [5]; 82 µM in assay [6]. Further, the 50% growth inhibitory concentration (GI50) in assay [7] worked out at 64 µM; in assay [8], 65 µM; in [9] it was 78 µM; in assay [10] it was 37 µM.

On to `N#C/C(=C\c1ccc[nH]1)c1ccc(Cl)cc1`, for which the concentration for 50% growth inhibition (GI50) amounted to 20 µM in assay [1]; 18 µM in assay [2]; 37 µM in assay [3]; 18 µM in assay [4]; 22 µM in assay [5]; 38 µM in assay [6]. Also, the concentration for 50% growth inhibition (GI50) turned out to be 19 µM in [7], 21 µM in assay [8], 23 µM in assay [9] and 4 µM in [10].

`CCCC/C=C(\C#N)c1ccc(Cl)c(Cl)c1`: the 50% growth inhibitory concentration (GI50) in [1] amounted to 70 µM; in [2], 24 µM; in assay [3], 87 µM; in [4], 53 µM; in assay [5], 68 µM; in [6] it was 95 µM. For the same compound, the 50% growth inhibitory concentration (GI50) is 100 µM in assay [7], 73 µM in [8], 88 µM in assay [9] and 49 µM in assay [10].

On to `N#C/C(=C\c1ccc(Br)cc1)c1ccc(Cl)c(Cl)c1`, for which the 50% growth inhibitory concentration (GI50) in assay [1] was found to be 22 µM; in assay [2], 20 µM; in assay [3], 26 µM; in assay [4] it was 20 µM; in [5], 22 µM; in assay [6] it was 21 µM. In addition, the 50% growth inhibitory concentration (GI50) in [7] stood at 21 µM; in assay [8], 21 µM; in assay [9] it was 20 µM; in assay [10], 16 µM.

As for `N#C/C(=C/c1ccc(Cl)cc1)C(=O)c1ccc[nH]1`, the GI50 is 53 µM in assay [1]; 75 µM in assay [2]; 32 µM in assay [3]; 54 µM in assay [4]; 68 µM in assay [5]; 59 µM in [6]. For the same compound, the GI50 in [7] is 38 µM; in assay [8] it was 63 µM; in [9] it was 31 µM; in assay [10], 84 µM.

On to `COc1ccc(/C=C(/C#N)C(=O)c2ccc[nH]2)cc1`, for which the GI50 in assay [1], in assay [2], in [3], in [4], in [5] and in [6] was less than 10 µM throughout. For the same compound, the concentration for 50% growth inhibition (GI50) in assay [7] is 24 µM; in assay [8], less than 10 µM; in assay [9] it was 13 µM; in [10], 22 µM.

`N#C/C(=C\c1ccc(F)cc1)c1ccc(Cl)c(Cl)c1`: the GI50 in [6] was 11 µM.

`N#C/C(=C\c1ccc(O)cc1)c1ccc(Cl)c(Cl)c1`: the concentration for 50% growth inhibition (GI50) in assay [1] was 21 µM; in assay [2], 20 µM; in [3] it was 45 µM; in assay [4], 30 µM; in [5] it was 36 µM; in [6], 28 µM. Besides, the GI50 turned out to be 26 µM in [7], 22 µM in [8], 21 µM in assay [9] and 23 µM in [10].

With `Cc1ccc(/C=C(\C#N)c2ccc(Cl)c(Cl)c2)cc1`, the 50% growth inhibitory concentration (GI50) in assay [1] is 2.1 µM; in assay [2], 2 µM; in assay [3] it was 2.2 µM; in assay [4], 1.6 µM; in [5] it was 2.3 µM; in [6], 2 µM. The GI50 worked out at 2.1 µM in [7], 2.2 µM in assay [8], 1.8 µM in assay [9] and 2.2 µM in assay [10].
